Values quoted from earlier work in patent publication EP2933251A1, “PHARMACEUTICAL COMPOSITION USABLE FOR THE TREATMENT OF A PATHOLOGY OF THE FOOT OF A HOOFED MAMMAL” (Weyts, Peter, priority 2014, dated 2015).

System: vaisseaux sanguins du sabot du cheval
Conditions: as stated in WO 2006/100468 A1

**Q.** For `CC(=O)N[C@@H](CS)C(=O)O` [N-acétylcystéine], which “contraction des vaisseaux sanguins du sabot du cheval” value is on record?
**A.** permet de réduire la contraction des vaisseaux sanguins du sabot du cheval
